Reference: patent US9211290B2, “Solid dispersions of amorphous paroxetine mesylate” (priority 2012, dated 2015)

Legend:
[1] = Physical stability of solid dispersions exposed in open containers to temperature/humidity stress (PLM, XRPD); format: physicochemical
Protocol: X-ray Powder Diffraction (XRPD): XRPD patterns were collected using a PANalytical X'Pert Pro diffractometer. The specimen was analyzed using Cu radiation produced using an Optix long fine-focus source. An elliptically graded multilayer mirror was used to focus the Cu Kα X-rays of the source through the specimen and onto the detector. The specimen was sandwiched between 3-micron thick films, analyzed in transmission geometry, and rotated to optimize orientation statistics. Soller slits were used for the incident and diffracted beams to minimize axial divergence. Diffraction patterns were collected using a scanning position-sensitive detector (X'Celerator) located 240 mm from the specimen. Prior to the analysis, a silicon specimen (NIST standard reference material 640d) was analyzed to verify the position of the silicon 111 peak.
Polarized Light Microscopy (PLM): Polarized light microscopy was performed using a Leica DM LP microscope equipped with Spot Insight color camera (model 3.2.0). […]
Physical stability experiments were conducted by exposing the dispersions in open containers at Room Temperature (RT) and at elevated temperature and different humidities (expressed as relative humidity, RH). […]
Physical stability was evaluated visually at RT/75% RH after approximately 24 h by PLM for evidence of birefringence and extinction indicative of crystalline material. […]

[2] = Aqueous solubility of paroxetine mesylate Form A; format: physicochemical; details: water

For `CS(=O)(=O)O.Fc1ccc([C@@H]2CCNC[C@H]2COc2ccc3c(c2)OCO3)cc1` [Example 1-2, paroxetine mesylate], the “Acceptable Physical Stability? RT/58% RH 3 d” value ([1]; 25° C./58% RH used instead of RT/58% RH (footnote b), 3 d) was “N” and the “Acceptable Physical Stability? 60° C./75% RH 2 h” value ([1]; 60° C./75% RH, 2 h) was “N”.

With `CS(=O)(=O)O.Fc1ccc([C@@H]2CCNC[C@H]2COc2ccc3c(c2)OCO3)cc1` [paroxetine mesylate Form A, paroxetine mesylate] the solubility [2] was > 1000 mg/mL.
